# Data reported in patent publication US20120201749A1, “NP-1 Antagonists and Their Therapeutic Use” (priority 2009, published 2012).
# Molecular target: NP-1 (Homo sapiens, UniProt O14786)
# Test: Biotinylated-VEGF-A165 (bt-VEGF-A165) binding to NP-1
# Conditions: for inhibition at 3 µM: 3 μM compound, read-out: Screen (% inhibition at 3 μM); for inhibition at 30 µM: 30 μM compound, read-out: Screen (% inhibition at 30 μM)
# Description: Human prostate carcinoma DU145 cells were cultured in growth medium (RPMI 1640 containing 10% FBS and L-glutamine). DU145 cells were seeded at the density of 2×10^4 cells per well (96-well plates) in 0.1 ml growth medium and transfected with adenovirus vectors containing the full-length open-reading frame of human NP-1. The Ad.NP-1-transfected cells grew for 2 days prior to a binding assay.
# Confluent Ad.NP-1-transfected cells in 96-well plates were washed twice with phosphate-buffered saline (PBS). The various concentrations of compounds diluted in binding medium (Dulbecco's modified Eagle's medium, 25 mM HEPES pH 7.3 containing 0.1% BSA) were added, followed by addition of 2 nM of bt-VEGF-A165. After 2 h of incubation at room temperature, the medium was aspirated and washed three times with PBS. The bound bt-VEGF-A165 to NP-1 was detected by streptavidin-horseradish peroxidase conjugates and the enzyme substrate, and measured using a Tecan Genios plate reader at A450 nm with a reference wavelength at A595 nm. Non-specific binding was determined in the presence of 100-fold excess unlabelled VEGF-A165.
# The 96-well plates were pre-coated with NP1 protein at 3 μg/ml overnight at 4° C. On the following day, the plates were treated with blocking buffer (PBS containing 1% BSA) and washed three times with wash buffer (PBS containing 0.1% Tween-20). The various concentrations of compounds diluted in PBS containing 1% DMSO were added, followed by addition of 0.25 nM of bt-VEGF-A165. After 2 h of incubation at room temperature, the plates were washed three times with wash buffer. The bound bt-VEGF-A165 to NP-1 was detected by streptavidin-horseradish peroxidase conjugates and the enzyme substrate, and measured using a Tecan Genios plate reader at A450 nm with a reference wavelength at A595 nm. Nonspecific binding was determined in the absence of NP-1 coated wells of the plates.
# Sequence of NP-1 (O14786 22-923): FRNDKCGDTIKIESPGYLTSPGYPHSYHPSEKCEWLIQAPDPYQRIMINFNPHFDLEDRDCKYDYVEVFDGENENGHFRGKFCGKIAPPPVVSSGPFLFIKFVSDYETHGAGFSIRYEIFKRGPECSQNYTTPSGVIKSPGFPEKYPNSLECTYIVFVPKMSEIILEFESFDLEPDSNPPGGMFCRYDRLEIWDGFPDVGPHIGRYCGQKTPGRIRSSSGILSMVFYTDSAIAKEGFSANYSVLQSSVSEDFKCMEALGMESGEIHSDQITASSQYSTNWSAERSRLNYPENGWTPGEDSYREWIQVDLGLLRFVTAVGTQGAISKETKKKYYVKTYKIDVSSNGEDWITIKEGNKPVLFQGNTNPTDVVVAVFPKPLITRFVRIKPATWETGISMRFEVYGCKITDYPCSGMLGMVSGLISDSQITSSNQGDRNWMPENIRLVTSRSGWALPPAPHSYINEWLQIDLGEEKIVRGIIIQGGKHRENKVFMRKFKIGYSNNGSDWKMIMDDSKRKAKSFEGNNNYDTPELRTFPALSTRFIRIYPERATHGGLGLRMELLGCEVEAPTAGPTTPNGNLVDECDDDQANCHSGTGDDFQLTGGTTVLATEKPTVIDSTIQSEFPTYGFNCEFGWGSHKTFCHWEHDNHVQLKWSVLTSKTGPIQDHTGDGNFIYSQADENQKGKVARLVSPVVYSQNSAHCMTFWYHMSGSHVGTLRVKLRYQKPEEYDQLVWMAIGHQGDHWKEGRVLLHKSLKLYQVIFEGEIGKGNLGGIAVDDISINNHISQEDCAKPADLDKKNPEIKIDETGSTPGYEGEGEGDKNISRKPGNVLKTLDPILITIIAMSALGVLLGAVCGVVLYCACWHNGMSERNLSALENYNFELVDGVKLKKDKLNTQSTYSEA
SMILES,inhibition at 3 µM,IC50,inhibition at 30 µM
"N=C(N)NCCC[C@H](NC(=O)c1sccc1NS(=O)(=O)c1cc(-c2ccccc2CNCc2ccc(N)nc2)cc2c1OCC2)C(=O)O [Compound 39, (S)-2-({3-[5-(2-{[(6-Amino-pyridin-3-ylmethyl)-amino]-methyl}-phenyl)-2,3-dihydro-benzofuran-7-sulfonylamino]-thiophene-2-carbonyl}-amino)-5-guanidino-pentanoic acid]",61%,–,–
"N=C(N)NCCC[C@H](NC(=O)c1sccc1NS(=O)(=O)c1cc(-c2cccc(CNCc3ccc(N)nc3)c2)cc2c1OCC2)C(=O)O [Compound 40, (S)-2-({3-[5-(3-{[(6-Amino-pyridin-3-ylmethyl)-amino]-methyl}-phenyl)-2,3-dihydro-benzofuran-7sulfonylamino]-thiophene-2-carbonyl}-amino)-5-guanidino-pentanoic acid]",56%,–,–
"Cc1[nH]ncc1CCCNCc1cccc(-c2cc3c(c(S(=O)(=O)Nc4ccsc4C(=O)N[C@@H](CCCNC(=N)N)C(=O)O)c2)OCC3)c1 [Compound 41, (S)-5-Guanidino-2-({3-[5-(3-{[3-(5-methyl-1H-pyrazol-4-yl)-propylamino]-methyl}-phenyl)-2,3-dihydro-benzofuran-7-sulfonylamino]-thiophene-2-carbonyl}-amino)-pentanoic acid]",52%,–,–
"N=C(N)NCCC[C@H](NC(=O)c1sccc1NS(=O)(=O)c1cc(-c2cccc(CNCCc3cn[nH]c3)c2)cc2c1OCC2)C(=O)O [Compound 42, (S)-5-Guanidino-2-({3-[5-(3-{[2-(1H-pyrazol-4-yl)-ethylamino]-methyl}-phenyl)-2,3-dihydro-benzofuran-7-sulfonylamino]-thiophene-2-carbonyl}-amino)-pentanoic acid]",78%,–,–
"N=C(N)NCCC[C@H](NC(=O)c1sccc1NS(=O)(=O)c1cc(-c2cccc(CNCc3ccc(O)nc3)c2)cc2c1OCC2)C(=O)O [Compound 43, (S)-5-Guanidino-2-({3-[5-(3-{[(6-hydroxy-pyridin-3-ylmethyl)-amino]-methyl}-phenyl)-2,3-dihydro-benzofuran-7-sulfonylamino]-thiophene-2-carbonyl}-amino)-pentanoic acid]",82%,–,–
"Cc1ccc(NCCCNCc2cccc(-c3cc4c(c(S(=O)(=O)Nc5ccsc5C(=O)N[C@@H](CCCNC(=N)N)C(=O)O)c3)OCC4)c2)nc1 [Compound 44, (S)-5-Guanidino-2-({3-[5-(3-{[3-(5-methyl-pyridin-2-ylamino)-propylamino]-methyl}-phenyl)-2,3-dihydro-benzofuran-7-sulfonylamino]-thiophene-2-carbonyl}-amino)-pentanoic acid]",78%,–,–
"Cc1ccnc(NCCNCc2cccc(-c3cc4c(c(S(=O)(=O)Nc5ccsc5C(=O)N[C@@H](CCCNC(=N)N)C(=O)O)c3)OCC4)c2)c1 [Compound 45, (S)-5-Guanidino-2-({3-[5-(3-{[2-(4-methyl-pyridin-2-ylamino)-ethylamino]-methyl}-phenyl)-2,3-dihydro-benzofuran-7-sulfonylamino]-thiophene-2-carbonyl}-amino)-pentanoic acid]",81%,–,–
"Cc1[nH]ncc1CCCNCc1ccccc1-c1cc2c(c(S(=O)(=O)Nc3ccsc3C(=O)N[C@@H](CCCNC(=N)N)C(=O)O)c1)OCC2 [Compound 46, (S)-5-Guanidino-2-({3-[5-(2-{[3-(5-methyl-1H-pyrazol-4-yl)-propylamino]-methyl}-phenyl)-2,3-dihydro-benzofuran-7-sulfonylamino]-thiophene-2-carbonyl}-amino)-pentanoic acid]",65%,–,–
"N=C(N)NCCC[C@H](NC(=O)c1sccc1NS(=O)(=O)c1cc(-c2ccccc2CNCCc2cn[nH]c2)cc2c1OCC2)C(=O)O [Compound 47, (S)-5-Guanidino-2-({3-[5-(2-{[2-(1H-pyrazol-4-yl)-ethylamino]-methyl}-phenyl)-2,3-dihydro-benzofuran-7-sulfonylamino]-thiophene-2-carbonyl}-amino)-pentanoic acid]",86%,130 nM,–
"Cc1cc(CNCc2cccc(-c3cc4c(c(S(=O)(=O)Nc5ccsc5C(=O)N[C@@H](CCCNC(=N)N)C(=O)O)c3)OCC4)c2)no1 [Compound 48, (S)-5-Guanidino-2-({3-[5-(3-{[(5-methyl-isoxazol-3-ylmethyl)-amino]-methyl}-phenyl)-2,3-dihydro-benzofuran-7-sulfonylamino]-thiophene-2-carbonyl}-amino)-pentanoic acid]",86%,54 nM,99%

# Second part, the molecule after the results:
inhibition at 3 µM,IC50,inhibition at 30 µM,SMILES
52%,–,–,"N=C(N)NCCC[C@H](NC(=O)c1sccc1NS(=O)(=O)c1cc(-c2ccccc2CNCc2ccc(O)nc2)cc2c1OCC2)C(=O)O [Compound 49, (S)-5-Guanidino-2-({3-[5-(2-{[(6-hydroxy-pyridin-3-ylmethyl)-amino]-methyl}-phenyl)-2,3-dihydro-benzofuran-7-sulfonylamino]-thiophene-2-carbonyl}-amino)-pentanoic acid]"
82%,–,–,"Cc1ccc(NCCCNCc2ccccc2-c2cc3c(c(S(=O)(=O)Nc4ccsc4C(=O)N[C@@H](CCCNC(=N)N)C(=O)O)c2)OCC3)nc1 [Compound 50, (S)-5-Guanidino-2-({3-[5-(2-{[3-(5-methyl-pyridin-2-ylamino)-propylamino]-methyl}-phenyl)-2,3-dihydro-benzofuran-7-sulfonylamino]-thiophene-2-carbonyl}-amino)-pentanoic acid]"
94%,740 nM,–,"N=C(N)NCCC[C@H](NC(=O)c1sccc1NS(=O)(=O)c1cc(-c2cccc(CNCc3cn[nH]c3)c2)cc2c1OCC2)C(=O)O [Compound 51, (S)-5-Guanidino-2-({3-[5-(3-{[(1H-pyrazol-4-ylmethyl)-amino]-methyl}-phenyl)-2,3-dihydro-benzofuran-7-sulfonylamino]-thiophene-2-carbonyl}-amino)-pentanoic acid]"
77%,–,–,"N=C(N)NCCC[C@H](NC(=O)c1sccc1NS(=O)(=O)c1cc(-c2cccc(CNCc3cc[nH]n3)c2)cc2c1OCC2)C(=O)O [Compound 52, (S)-5-Guanidino-2-({3-[5-(3-{[(1H-pyrazol-3-ylmethyl)-amino]-methyl}-phenyl)-2,3-dihydro-benzofuran-7-sulfonylamino]-thiophene-2-carbonyl}-amino)-pentanoic acid]"
54%,–,–,"N=C(N)NCCC[C@H](NC(=O)c1sccc1NS(=O)(=O)c1cc(-c2ccccc2CNCc2cc[nH]n2)cc2c1OCC2)C(=O)O [Compound 53, (S)-5-Guanidino-2-({3-[5-(2-{[(1H-pyrazol-3-ylmethyl)-amino]-methyl}-phenyl)-2,3-dihydro-benzofuran-7-sulfonylamino]-thiophene-2-carbonyl}-amino)-pentanoic acid]"
70%,–,–,"N=C(N)NCCC[C@H](NC(=O)c1sccc1NS(=O)(=O)c1cc(-c2ccccc2CNCc2cn[nH]c2)cc2c1OCC2)C(=O)O [Compound 54, (S)-5-Guanidino-2-({3-[5-(2-{[(1H-pyrazol-4-ylmethyl)-amino]-methyl}-phenyl)-2,3-dihydro-benzofuran-7-sulfonylamino]-thiophene-2-carbonyl}-amino)-pentanoic acid]"
71%,525 nM,–,"N=C(N)NCCC[C@H](NC(=O)c1sccc1NS(=O)(=O)c1cc(-c2cccc(CN3CCN(CCO)CC3)c2)cc2c1OCC2)C(=O)O [Compound 55, (S)-5-Guanidino-2-{[3-(5-{3-[4-(2-hydroxy-ethyl)-piperazin-1-ylmethyl]-phenyl}-2,3-dihydro-benzofuran-7-sulfonylamino)-thiophene-2-carbonyl]-amino}-pentanoic acid]"
57%,–,89%,"N=C(N)NCCC[C@H](NC(=O)c1sccc1NS(=O)(=O)c1cccc(NCc2csc(C3CCNCC3)n2)c1)C(=O)O [Compound 56, (S)-5-guanidino-2-[(3-{3-[(2-piperidin-4-yl-thiazol-4-ylmethyl)-amino]-benzenesulfonylamino}-thiophene-2-carbonyl)-amino]-pentanoic acid]"
98%,40 nM,99%,"N=C(N)NCCC[C@H](NC(=O)c1sccc1NS(=O)(=O)c1cccc(NCc2csc(N3CCN(c4ccncc4)CC3)n2)c1)C(=O)O [Compound 57, (S)-5-guanidino-2-{[3-(3-{[2-(4-pyridin-4-yl-piperazin-1-yl)-thiazol-4-ylmethyl]-amino}-benzenesulfonylamino)-thiophene-2-carbonyl]-amino}-pentanoic acid]"
58%,–,94%,"N=C(N)NCCC[C@H](NC(=O)c1sccc1NS(=O)(=O)c1cccc(NCc2csc(N3CCN(Cc4cccnc4)CC3)n2)c1)C(=O)O [Compound 59, (S)-5-guanidino-2-{[3-(3-{[2-(4-pyridin-3-ylmethyl-piperazin-1-yl)-thiazol-4-ylmethyl]-amino}-benzenesulfonylamino)-thiophene-2-carbonyl]-amino}-pentanoic acid]"
